Measured values from patent publication US4786755A, “Diphenic acid monoamides” (Warner-Lambert Company, priority 1986, dated 1988).
Like-named read-outs stand apart in the source and are kept apart here.

Test system: Human Basophils
Assay: Histamine Release from Human Basophils (HHB)
Type: cell-based
Details: for inhibition at 33 µM: Homo sapiens, 33 μM cpd.
Description: Histamine Release from Human Basophils (HHB) Procedure for Quantitating Active Histamine Release, and its Inhibition by Drugs, from Basophils of Human Blood Using an Automated Fluorometric Histamine Assay
Mediator (histamine) release from human blood basophils is an assay which provides a model for evaluating potential antiallergy (mediator release inhibitors) compounds.
Blood from allergic donors is obtained from volunteers through the Community Research Clinic. The leukocytes are removed after Hespan® sedimentation, washed and concentrated using calcium and magnesium free Hepes buffered saline and resuspended in Hepes Hepes buffered saline with 1 mM calcium and magnesium added back. The cells are incubated briefly at room temperature with either buffer alone (for measuring spontaneous release and challenge agent stimulated release) 6% perchloric acid (for measuring total available histamine in the cells) or drug at various concentrations. The cells are then either treated with buffer alone (to measure control spontaneous and drug effect on spontaneous release) or appropriate challenge agent (e.g., anti-IgE, antigen) mixed and incubated for 45 minutes at 37° C. in a shaking water bath. The reaction is stopped by centrifugation and the supernate is poured into autoanalyzer sample cups and samples assayed for assayed for histamine content using an automated fluorometric assay. By comparing the histamine release of drug-treated cells and the challenge agent controls, drug inhibition of mediator (histamine) release can be evaluated.
Histamine release is induced by (1) an aqueous antigen extract (short rageweed or house dust), or (2) anti-IgE antisera. Whole human blood is obtained from volunteers through the Community Research Clinic (CRC-92). Volunteers are chosen on the basis of adequate histamine release induced by antigen, or antiIgE antisera challenge. Leukocytes are incubated in vitro with the challenge agents at several concentrations. Dose-response curves for each volunteer, using each challenge agent, are generated. Test compounds are evaluated for inhibition of a near maximal response to one or more challenge agents. By including appropriate controls, it is possble to measure the effect of the test compound, at various concentrations, in several ways: (1) the effect of the compound on histamine release for each challenge agent; (2) the effect of the test compound on spontaneous release of histamine in the absence of the challenge agent (buffer alone); and (3) the effect of the test compound on the histamine assay.
Histamine is assayed using an automated continuous flow system which quantitates samples of 0.4 ml or more in volume, and concentrations of approximately 0.5 ng/ml or more. The rate of analysis is 30 samples/hour.
Methods of preparing leukocytes for this assay are described by Theuson, et al, J. of Immunology, Vol. 123, p. 426 (1979).
Samples are run in triplicate, using either 1.5 ml polypropylene capped reaction tubes, or 5.0 ml plastic uncapped tubes. Test compounds and challenge agents are prepared in HACM buffer, as described above. Fixed volume pipettes are used.
Test compound or vehicle control is added to three reaction tubes at 1.5×the final desired concentration (i.e., 400 μl of test compound per 600 μl total reaction volume). One hundred μl of cells is added to each tube and the mixture is incubated for eight minutes at room temperature, and two minutes at 37° C. before antigen or other stimulus challenge. One hundred μl of the challenge agent at 6× the final concentration is then added, and the final mixture is incubated at 37° C. for 45 minutes in a shaking water bath. This ensures that the cell preparation is constantly in suspension. The reaction is stopped by centrifugation at 2000 RPM for three minutes at 4° C. The supernate (.perspectiveto.500 μl) is poured into 2.0 ml autoanalyzer beakers and assayed for histamine by the fluorometric method. […]

[1] = Tripeptide challenge, read-out: HHB (Tripeptide), percent inhibition of histamine release
[2] = antigen challenge, read-out: HHB (antigen), percent inhibition of histamine release

SMILES: O=C(O)c1ccccc1-c1ccccc1C(=O)Nc1ccc(CCCc2ccc(Cl)c(Cl)c2)cc1 [Example 1, [1,1'-Biphenyl]-2-carboxylic acid, 2'-[[[4-[3-(3,4-dichlorophenyl)propyl]phenyl]amino]carbonyl]-]
- inhibition at 33 µM [1]: 72%
- inhibition at 33 µM [2]: 72%

SMILES: O=C(O)c1ccccc1-c1ccccc1C(=O)Nc1ccc(OCCCc2ccccc2)cc1 [Example 2]
- inhibition at 33 µM [1]: 96%
- inhibition at 33 µM [2]: 12%

SMILES: O=C(O)c1ccccc1-c1ccccc1C(=O)Nc1ccc(CCc2ccc(Cl)c(Cl)c2)cc1 [Example 3, [1,1'-Biphenyl]-2-carboxylic acid, 2'-[[[4-[2-(3,4-dichlorophenyl)ethyl]phenyl]amino]carbonyl]-]
- inhibition at 33 µM [1]: 93%
- inhibition at 33 µM [2]: 94%

SMILES: O=C(O)c1ccccc1-c1ccccc1C(=O)Nc1cccc(CCc2ccc(Cl)c(Cl)c2)c1 [Example 4, [1,1'-Biphenyl]-2-carboxylic acid, 2'-[[[3-[2-(3,4-dichlorophenyl)ethyl]phenyl]amino]carbonyl]-]
- inhibition at 33 µM [1]: 97%
- inhibition at 33 µM [2]: 101%

SMILES: CN(C(=O)c1ccccc1-c1ccccc1C(=O)O)c1ccc(CCc2ccc(Cl)c(Cl)c2)cc1 [Example 5, [1,1'-Biphenyl]-2-carboxylic acid, 2'-[[[4-[2-(3,4-dichlorophenyl)ethyl]phenyl]methylamino]carbonyl]-]
- inhibition at 33 µM [1]: 83%
- inhibition at 33 µM [2]: 72%

SMILES: COc1ccc(CCc2ccc(NC(=O)c3ccccc3-c3ccccc3C(=O)O)cc2)cc1OC [Example 7, [1,1'-Biphenyl]-2-carboxylic acid, 2'-[[[4-[2-(3,4-dimethoxyphenyl)ethyl]phenyl]amino]carbonyl]-]
- inhibition at 33 µM [1]: 93%
- inhibition at 33 µM [2]: -5%

SMILES: CN(C(=O)c1ccccc1-c1ccccc1C(=O)O)c1ccc(CCc2ccc(Cl)cc2)cc1 [Example 8]
- inhibition at 33 µM [1]: 111%
- inhibition at 33 µM [2]: 67%

SMILES: O=C(O)c1ccccc1-c1ccccc1C(=O)Nc1ccc(Cc2ccc(Cl)c(Cl)c2)cc1 [Example 9]
- inhibition at 33 µM [1]: 100%
- inhibition at 33 µM [2]: 87%

SMILES: O=C(O)c1ccccc1-c1ccccc1C(=O)Nc1ccc(CCCCc2ccc(Cl)c(Cl)c2)cc1 [Example 15, [1,1'-Biphenyl]-2-carboxylic acid, 2'-[[[4-[4-(3,4-dichlorophenyl)butyl]phenyl]amino]carbonyl]-]
- HHB (antigen), percent inhibition of histamine release @ 10 (@ 10, antigen challenge): 39
- inhibition at 33 µM [1]: -17%

SMILES: O=C(O)c1ccccc1-c1ccccc1C(=O)Nc1ccc(CCCc2ccccc2)cc1 [Example 16, [1,1'-Biphenyl]-2-carboxylic acid, 2'-[[[4-(3-phenylpropyl]phenyl]amino]carbonyl]-]
- inhibition at 33 µM [1]: 84%

SMILES: O=C(O)c1ccccc1-c1ccccc1C(=O)Nc1ccc(CCCCc2ccccc2)cc1 [Example 19, [1,1'-Biphenyl]-2-carboxylic acid, 2'-[[[4-(4-phenylbutyl)phenyl]amino]carbonyl]-]
- inhibition at 33 µM [1]: 90%
- inhibition at 33 µM [2]: 59%

SMILES: O=C(O)c1ccccc1-c1ccccc1C(=O)Nc1ccc(CCCCCc2ccccc2)cc1 [Example 21, [1,1'-Biphenyl]-2-carboxylic acid, 2'-[[[4-(5-phenylpentyl)phenyl]amino]carbonyl]-]
- inhibition at 33 µM [1]: 93%
- inhibition at 33 µM [2]: 91%
